Laboratory results from the NIST ThermoML archive (doi:10.1021/je700535q).

Assay: xn = mol fraction of the nth substance listed
Details: 101 kPa, Liquid, x1 = 0

| binary diffusion coefficient (333.2 K) | binary diffusion coefficient (353.2 K) | binary diffusion coefficient (373.2 K) | binary diffusion coefficient (453.2 K) | binary diffusion coefficient (473.2 K) | binary diffusion coefficient (433.2 K) | binary diffusion coefficient (313.2 K) | binary diffusion coefficient (418.2 K) | binary diffusion coefficient (443.2 K) | Compound | binary diffusion coefficient (393.2 K) | binary diffusion coefficient (413.2 K) | binary diffusion coefficient (423.2 K) | binary diffusion coefficient (463.2 K) |
| --- | --- | --- | --- | --- | --- | --- | --- | --- | --- | --- | --- | --- | --- |
| 1.27e-09 m2/s | 1.55e-09 m2/s | 2e-09 m2/s | 3.96e-09 m2/s | 5.08e-09 m2/s | – | – | – | – | c1ccc2nc3ccccc3cc2c1 [acridine] + CCCCCCCCCCCCCC | 2.4e-09 m2/s | 2.93e-09 m2/s | 3.74e-09 m2/s | – |
| 9.4e-10 m2/s | 1.36e-09 m2/s | 1.38e-09 m2/s | 5.56e-09 m2/s | – | 3.43e-09 m2/s | – | – | 4.57e-09 m2/s | c1ccc2cc3ccccc3cc2c1 [anthracene] + CCCCCCCCCCCCCC | 2.03e-09 m2/s | – | – | – |

Continued, compound first:

| Compound | binary diffusion coefficient (333.2 K) | binary diffusion coefficient (353.2 K) | binary diffusion coefficient (373.2 K) | binary diffusion coefficient (453.2 K) | binary diffusion coefficient (473.2 K) | binary diffusion coefficient (433.2 K) | binary diffusion coefficient (313.2 K) | binary diffusion coefficient (418.2 K) | binary diffusion coefficient (443.2 K) | binary diffusion coefficient (393.2 K) | binary diffusion coefficient (413.2 K) | binary diffusion coefficient (423.2 K) | binary diffusion coefficient (463.2 K) |
| --- | --- | --- | --- | --- | --- | --- | --- | --- | --- | --- | --- | --- | --- |
| c1ccc2c(c1)sc1ccccc12 [dibenzothiophene] + CCCCCCCCCCCCCC | 1.06e-09 m2/s | 1.41e-09 m2/s | – | 3.96e-09 m2/s | – | 3.41e-09 m2/s | – | – | – | 2.13e-09 m2/s | 2.61e-09 m2/s | 3.14e-09 m2/s | 5.01e-09 m2/s |
| c1ccc2ccccc2c1 [naphthalene] + CCCCCCCCCCCCCC | 1.42e-09 m2/s | 1.86e-09 m2/s | 2.28e-09 m2/s | 5.56e-09 m2/s | – | 4.64e-09 m2/s | 1.03e-09 m2/s | 3.69e-09 m2/s | – | – | – | – | – |
| c1ccc2sccc2c1 [benzo[b]thiophene] + CCCCCCCCCCCCCC | 1.19e-09 m2/s | 1.65e-09 m2/s | 2.1e-09 m2/s | 4.77e-09 m2/s | – | – | – | – | – | 2.51e-09 m2/s | 3.19e-09 m2/s | 3.83e-09 m2/s | – |
